From US20050143453A1, “Selective preventing and therapeutic agents for progressive lesion after organic damage” (priority 2000, published 2005)
Where two headings read alike, the source gives them in different places.

Key:
[1] = tested on: induction of effector macrophage by contact of human PBMC with mitomycin-treated human PBMC (allo-MLC); assay: SPFC production by allo-MLC stimulation (Test Example 2); format: cell-based; conditions: for functional group (selective suppression of SPFC production by allo-MLC or LPS stimulation): summary of Table 1
[2] = tested on: induction of effector macrophage by contact of human PBMC with lipopolysaccharide; assay: SPFC production by LPS stimulation (Test Example 1); format: cell-based
Procedure: A suppressive effect of the test compound to effector macrophage induction was investigated in vitro by an induction and production system of spontaneous plaque-forming cell (SPEC) mentioned in M. Ishibashi, S. Jiang, Y. Kokado, S. Takahara, T. Sonoda: Immunopharmacologic effects of immunosuppressive agents explored by a new effector generation assay. Transplant Proc., 21: 1854-1858, 1989.
Heparin-added peripheral blood (40 ml) was collected from a healthy person and the same amount of EDTA-added physiological saline was added. PBMC were obtained by a specific gravity centrifugal method using Ficoll-Hypaque (manufactured by Pharmacia Fine Chemicals). Self-plasma was added thereto and allowed to stand at 37° C. for 10 minutes and platelets were removed by a low-speed centrifugal separation. RPMI 1640 liquid containing 15 μg/ml of gentamicin and 2 mM L-glutamine was used for washing the PBMC. Concentration of the PBMC was adjusted to 2×10^6 cells/ml using the same liquid.
Each 200 μl of a solution containing 2×10^6 PBMC/ml prepared in the step 1 were added to each well of a micro test plate, lipopolysaccharide (hereinafter, abbreviated as LPS) was diluted with the RPMI 1640 liquid to make the final concentration 80 μg/ml and the said LPS solution was added to each well of the 200 μl-micro test plate. Further, each 50 μl of human serum of type AB were added so as to make the concentration 10% by weight. Two such micro test plates were prepared.
After that, to the above two micro test plates was added a solution where the test compound was diluted with 1% by weight of DMSO so as to make the concentration of the test compound 1 μM. Similarly were prepared each two micro test plates where the final concentrations of the test compound were 0.1 μM, 0.01 μM and 0.001 μM.
The culture liquid prepared as such was incubated for 6 days at 37° C. in 5% CO2.
The effector macrophage induced after the incubation was all recovered using a rubber-policeman (spatula made of rubber). A Hanks solution containing 5 μg/ml of gentamicin was used for washing and, using the said solution, there was prepared a solution where the concentration of the induced effector macrophage was 2×10^6 per ml.
With regard to autologous erythrocytes, those which were preserved at 4° C. in a phosphate physiological saline (hereinafter, abbreviated as PBS) to which 0.1% by weight of AB serum and autologous erythrocytes obtained from PBMC separation were used were used. The preserved autologous erythrocytes were washed for three times with a Hanks solution to which no serum was added and made into a solution of 4% by weight concentration using the said Hanks solution. Poly-L-lysine was added to a Terasaki plate and washed with PBS every 20 minutes at 37° C., the above-mentioned autologous erythrocyte solution was added thereto immediately, the mixture was allowed to stand at 37° C. for 30 minutes and the erythrocytes which were not adhered to the plate were removed to prepare a Terasaki plate to which self-erythrocytes in a monolayer were adhered.
A Hanks solution (4 μl) was added to the said Terasaki plate, 4 μl of a solution containing the induced effector macrophage obtained in the step 3 were added thereto and the mixture was allowed to stand at 37° C. for 2 hours. After completion of the reaction, it was fixed by formalin. Numbers of the produced SPFC which were adhered or phagocytized were measured.
A mean SPFC production number was calculated from the measured values of SPFC production when the concentration of the test compound was the same. SPFC production number per 1×10^6 of the induced effector macrophage was calculated and, from the recovered induced effector macrophage numbers, total SPFC production amount (S2) was calculated.
As a control, no test compound was added and the same operation as above was carried out to calculate the total SPFC production amount (S1). […]

[3] = tested on: kidney of chronic puromycin nephrosis rat; assay: Puromycin chronic nephrosis model in rat (CPN, Test Example 4); format: in vivo; parameters: key to Suppressive Effect to Glomerular Lesion / Suppressive Effect to Lesion of Tubulointerstitial Tissue: ∘: available; Δ: somewhat available; x: not available
Procedure: Evaluation Using Puromycin Chronic Nephrosis Model in Rat
Male SD rat of 8 weeks age of about 250 g was used and […] of puromycin were intravenously administered once according to a method of Diamond, et al. (J. R. Diamond, I. Pesek, S. Ruggeri, M. J. Karnovsky: Essential fatty acid deficiency during acute puromycin nephrosis ameliorates late renal injury. Am. J. Physiol, 257: F798˜F807, 1989). There was induced a chronic puromycin nephrosis rat where albuminuria increased from about tenth to twelfth week. After eighth week from administration of puromycin, each of compound (9-1) and compound (6-1) was subcutaneously injected at the dose of 30 mg/kg/day everyday until the 22nd week.
As a functional evaluation of kidney, albumin in urine was measured every week using a kit for the measurement of albumin. On the 22nd week, the rat was killed and anatomized to observe functional and morphological changes of kidney.

[4] = Acute and chronic toxicity tests (Test Example 5); format: in vivo; conditions: subcutaneously 30 mg/kg/day for ten days
Procedure: Acute and Chronic Toxicity Tests
Toxicity test of benzyl 2-chloro-5-oxotetrahydrofuran-2-carboxylate represented by the formula (6-1) manufactured in Example 8 and ethyl 2-ketoglutarate represented by the formula (9-1) was carried out.

[5] = tested on: obstruction-released kidney of male SD rats; assay: Obstruction release model after complete obstruction of unilateral ureter for 14 days (UUO/Release, Test Example 3); format: in vivo, rat; parameters: key to Suppressive Effect to Glomerular Lesion / Suppressive Effect to Lesion of Tubulointerstitial Tissue: ∘: available; Δ: somewhat available; x: not available; conditions: for Suppressive Effect to Glomerular Lesion / Suppressive Effect to Lesion of Tubulointerstitial Tissue: Experimental Model of Rat: UUO/Release
Procedure: Obstruction Release Model after Complete Obstruction of Unilateral Ureter for 14 Days
Experimental models were prepared by a method devised and established by Ishibashi (Michio Ishibashi, et al.: The Japanese Journal of Nephrology, 42: 248, 2000) using male SD rats of 8-9 weeks age and about 280 g. Thus, the rat was laparotomized under anesthetization with ether and ureter was ligated with 7-0 Nylon at the height of the margin of lower pole of left kidney to close the abdomen. On the 14th day after obstruction, the obstruction was released and urinary passage was reconstructed using a cuff. Thus, after 14 days, the part of ligated obstructed ureter was resected, a polyethylene tube of 25 gages (manufactured by Nippon Sherwood) was used as a cuff and inserted into and retained at the lumen from the cut end of the lower normal ureter, then the cuff was also retained in the expanded upper ureter and each of them was ligated and fixed by 7-0 Nylon to reconstruct the urinary passage. At the same time, the right kidney at the opposite side was excised. After the release of the obstruction, body weight was measured, blood was collected on the 2nd day, 5th day and 7th day from the release to measure serum creatinine, then the rat was sacrificed under anesthetization and the left obstruction-released kidney was excised. With regard to the excised kidney, there were carried out measurement of weight of the kidney and pathological test for the kidney.
An in vivo biological test was carried out for the γ-lactone derivatives according to the present invention using the above models. With regard to the test compound, bulk powder of the test compound was dissolved in an aseptic physiological saline together with gum arabic and the final concentration of gum arabic was 5%(vol/vol). The concentration of the test compound 30 mg/ml was suspended in 5% gum arabic-saline solution. The preparation was subcutaneously injected at the dose of 30 mg/kg every day throughout the experiment. With regard to the test compound, there were used (9-1), (4-2) and (7-3) as the compounds of group I suppressing the SPFC production by allo-MLC stimulation, i.e., the compounds which selectively suppress the induction of effector macrophage in the presence of allo-MLC while there was used (3-2) as the compound of group II suppressing the SPFC production by LPS stimulation, i.e., the compounds which selectively suppress the induction of effector macrophage in the presence of LPS.
In the Table, “functional classification” of the compound means the above group I, group II and group III. “Compound” means the compound bearing each of the above-mentioned compound numbers. The fact whether glomerular lesion was suppressed was judged by the ameriolation of the lesions such as thickness of wall of Bowman's capsule, hyperplasia of mesangial cells and glomerular sclerosis. The fact whether lesion of tubulointerstitial tissue was suppressed was judged by the ameriolation of the lesions such as thickness of basement membrane of tubules, cellular infiltration and fibrosis of interstitial tissue. In the table, “control” is the result when the same test as above was carried out using 5% gum arabic only which is a solvent.
In order to further confirm whether the preventive and therapeutic effect of the γ-lactone derivatives of the present invention to the target cell damage is selective, (7-3) of the group I and (6-1) of the group II were used as test compounds and they were subcutaneously injected at the dose of 30 mg/kg every day and compared with the control group. With regard to the control group, only 5% gum arabic which is a solvent was used and the same test as above was carried out.

[6] = tested on: lesion of tubulointerstitial tissue / glomerulus; assay: Suppression of renal lesion in vivo by active metabolites (model not stated)
[7] = 144 h, human PBMC with mitomycin-treated human PBMC, incubated 6 days, Table 1, read-out: SPFC Production Inhibiting Concentration by all-MLC Stimulation (μM: IC50)
[8] = Homo sapiens, Table 5, read-out: Inhibiting Concentration for SPEC Production by allo-MLC Stimulation (μM: IC50)
[9] = 144 h, human PBMC with LPS 80 μg/ml, incubated 6 days, Table 1, read-out: SPFC Production Inhibiting Concentration by LPS Stimulation (μM: IC50)
[10] = Homo sapiens, Table 5, read-out: Inhibiting Concentration for SPEC Production by LPS Stimulation (μM: IC50)
[11] = 30 mg/kg/day subcutaneously from 8th to 22nd week after puromycin
[12] = 30 mg/kg subcutaneously every day, Table 2

Molecule | IC50 [1, 7] | IC50 [1, 8] | functional group (selective suppression of SPFC production by allo-MLC or LPS stimulation) [1] | IC50 [2, 9] | IC50 [2, 10] | suppression of glomerular lesion ([3]; 30 mg/kg/day subcutaneously) | Rate of Cases where Glomerular Lesion was Suppressed [3, 11] | Rate of Cases where Lesion of Tubulointerstitial Tissue was Suppressed [3, 11] | Suppressive Effect to Glomerular Lesion ([3]; Experimental Model of Rat: CPN) | Suppressive Effect to Lesion of Tubulointerstitial Tissue ([3]; Experimental Model of Rat: CPN) | toxicity finding [4] | Suppressive Effect to Glomerular Lesion [5] | Suppressive Effect to Lesion of Tubulointerstitial Tissue [5] | selectivity of the suppressive effect on renal lesions ([5]; 30 mg/kg subcutaneously every day) | Rate of Cases where Glomerular Lesion was Suppressed [5, 12] | Rate of Cases where tubulointerstitial Lesion was Suppressed [5, 12] | Serum Creatinine level (mg/dl) on the 7th Day from Release of Obstruction [5, 12] | Weight of Kidney (g) on the 7th Day from Release of Obstruction [5, 12] | suppression of SPFC production by LPS stimulation [2] | suppression of lesion of glomerulus in vivo [6]
O=C1CCC(Cl)(C(=O)OCc2ccccc2)O1 (stereo not drawn) [(6-1), Benzyl 2-chloro-5-oxotetrahydrofuran-2-carboxylate] | > 1 µM | > 1 µM | group II | 0.001 µM | 0.001 µM | well suppressed | 67% (4/6) | 17% (1/6) | ∘ | x | an increase in weights of the liver and the spleen in a light degree |  |  |  |  |  |  |  |  | 
O=C1CCC(F)(C(=O)OCc2ccccc2)O1 (stereo not drawn) [(6-2), Benzyl 2-fluoro-5-oxotetrahydrofuran-2-carboxylate] |  |  | group II | 0.001 µM | 0.001 µM |  |  |  |  |  |  | ∘ | x |  |  |  |  |  |  | 
O=C1OC(Cl)(C(=O)OCc2ccccc2)c2ccccc21 (stereo not drawn) [(7-3), Benzyl 1-chloro-3-oxo-1,3-dihydro-isobenzofuran-1-carboxylate] | 0.01 µM | 0.01 µM | group I | > 1 µM | 0.01 µM |  |  |  |  |  |  | x | ∘ | selective suppressive effect | 25% (1/4) | 100% (4/4) | 2.0 ± 0.6 mg/dL | 2.72 ± 0.47 g |  | 
benzyl 2-ketoglutarate [(9-2)] |  |  |  |  |  |  |  |  |  |  |  |  |  |  |  |  |  |  | selectively suppresses | able to suppress
